Results published in EP4613259A1, “PHARMACEUTICAL, DERMATOLOGICAL OR COSMETIC COMPOUNDS AND COMPOSITIONS FOR REDUCING MELANIN SYNTHESIS, STIMULATING TYPE I COLLAGEN PRODUCTION, SKIN DEPIGMENTATION AND/OR PROMOTING A SKIN ANTI-AGING EFFECT IN AN INDIVIDUAL OR ANIMAL, USES AND METHODS” (Chemyunion Ltda, priority 2022, dated 2024).
Where a SMILES comes first, the peptide text is derived from it. The star is where a group is joined. Palmitoyl = CCCCCCCCCCCCCCCC(=O)*

Key:
[1] = test system: melanin synthesis in human skin fragments; assay: Inhibition of melanin synthesis in ex vivo human skin fragments (Fontana Masson staining, semi-quantification); type: cell-based; settings: skin explants (n=5), 72h
Description: Example 1: Evaluation of inhibition of melanin synthesis in human skin fragments.
Skin explants (n=5), obtained from a surgical procedure performed by an ophthalmological plastic surgery clinic, were treated for 72h with a formulation containing the peptide SEQ ID No. 1 (Pal-Gln-His-Trp-Val-OH), (at 50 ppm or 100 ppm) and with the same formulation without the addition of the peptide (placebo).
After incubation with the test products as described above, the skin fragments were fixed in 4% paraformaldehyde (pH 7.4) for 24 hours. After fixation, the material was transferred to 30% sucrose solution for cryopreservation and then embedded in tissue freezing medium, followed by serial sections of approximately 10 µm thickness made by cryostat and collected directly on silanized glass slides. Then, the skin sections were stained by the Fontana Masson technique.
Subsequently, the slides were analyzed and recorded using an optical microscope coupled to a camera.

type I collagen = assay: Stimulation of type I collagen synthesis in ex vivo human skin fragments (immunofluorescence, semi-quantification); type: cell-based; settings: skin explants (n=5)
Description: Example 2: Evaluation of collagen synthesis stimulation in human skin fragments.
Skin explants (n=5) obtained from a surgical procedure performed by the ophthalmologic plastic surgery clinic were treated for 72 h with a formulation containing the peptide SEQ ID No. 1 ( Pal - Gln - His- Trp - Val-OH ) (at 50 ppm or 100 ppm ) and with the same formulation without the addition of the peptide (placebo). After incubation with the test products as described above, the skin fragments were fixed in 4% paraformaldehyde (pH 7.4) for 24 h. After fixation, the material was transferred to a 30% sucrose solution for cryopreservation and then embedded in tissue freezing medium, followed by serial sections of approximately 10 µm thickness made by cryostat and collected directly on silanized glass slides. The skin sections were then subjected to the specific labeling process for type I collagen for subsequent immunofluorescence analysis; the records were obtained using a fluorescence optical microscope coupled to a photographic camera.

## CCCCCCCCCCCCCCCC(=O)N[C@@H](CCC(N)=O)C(=O)N[C@@H](Cc1cnc[nH]1)C(=O)N[C@@H](Cc1c[nH]c2ccccc12)C(=O)N[C@H](C(=O)O)C(C)C [SEQ ID No. 1, Pal-Gln-His-Trp-Val-OH] (Palmitoyl-QHWV-OH)
[1]; 50 ppm peptide in formulation
  reduces melanin production compared to the placebo group: 66%
[1]; 100 ppm peptide in formulation
  inhibits pigment synthesis compared to the levels observed in the placebo group: 61%
Type I collagen; 50 ppm peptide in formulation, 72h
  stimulated collagen I production compared to the placebo group: 63%
Type I collagen; 100 ppm peptide in formulation, 72 h, protein = type I collagen
  increase in protein synthesis compared to the levels observed in the placebo group: 71%
